Source: patent publication US20110311649A1, “NOVEL IMIDAZOLE DERIVATIVES” (SYNGENTA CROP PROTECTION, INC., priority 2007, published 2011)

Experiments:
Format in all cases: in vivo
[1] = system: Pyrenophora teres (Helminthosporium teres); experiment: Pyrenophora teres (Helminthosporium teres)/Barley/Preventive (action against net blotch on barley); conditions: 96 h, preventive spray, barley plants cv. Regina, assessed 4 days after inoculation, read-out: inhibit fungal infestation
Description: Pyrenophora teres (Helminthosporium teres)/Barley/Preventive (Action Against Net Blotch on Barley) 1-week-old barley plants cv. Regina are treated with the formulated test compound in a spray chamber. Two days after application barley plants are inoculated by spraying a spore suspension (2.6×10^4 conidia/ml) on the test plants. After an incubation period of 4 days at 20° C. and 95% r. h. the disease incidence is assessed.

[2] = system: Puccinia recondita; experiment: Puccinia recondita/Wheat/Preventive (action against brown rust on wheat); conditions: 264 h, preventive spray, wheat plants cv. Arina, assessed 11 days after inoculation, read-out: inhibit fungal infestation
Description: Puccinia recondita/Wheat/Preventive (Action Against Brown Rust on Wheat) 1 week old wheat plants cv. Arina are treated with the formulated test compound in a spray chamber. One day after application wheat plants are inoculated by spraying a spore suspension ([…] uredospores/ml) on the test plants. After an incubation period of 1 day at 20° C. and 95% r. h. plants are kept for 10 days 20° C./18° C. (day/night) and 60% r.h. in a greenhouse. The disease incidence is assessed 11 days after inoculation.

[3] = system: Alternaria solani; experiment: Alternaria solani/Tomato/Preventive (action against Alternaria on tomato); conditions: 96 h, preventive spray, tomato plants cv. Roter Gnom, assessed 4 days after inoculation, read-out: inhibit fungal infestation
Description: (§1) Alternaria solani/Tomato/Preventive (Action Against Alternaria on Tomato) 4 weeks old tomato plants cv. Roter Gnom are treated with the formulated test compound in a spray chamber. Two days after application tomato plants are inoculated by spraying a spore suspension on the test plants. After an incubation period of 4 days at 22° C./18° C. and 95% r. h. in a greenhouse the disease incidence is assessed.

[4] = system: Uncinula necator; experiment: Uncinula necator/Grape/Preventive (action against powdery mildew on grape); conditions: Erysiphe necator, 168 h, preventive spray, grape seedlings cv. Gutedel, assessed 7 days after inoculation, read-out: inhibit fungal infestation
Description: Uncinula necator/Grape/Preventive (Action Against Powdery Mildew on Grape) 5 weeks old grape seedlings cv. Gutedel are treated with the formulated test compound in a spray chamber. One day after application grape plants are inoculated by shaking plants infected with grape powdery mildew above the test plants. After an incubation period of 7 days at 24° C./22° C. and 70% r. h. under a light regime of 14/10 h (light/dark) the disease incidence is assessed.

[5] = system: Botrytis cinerea; experiment: Botrytis cinerea/Tomato/Preventive (action against Botrytis on tomato); conditions: 72 h, preventive spray, tomato plants cv. Roter Gnom, assessed 3 days after inoculation, read-out: inhibit fungal infestation
Description: as §1, with “Botrytis cinerea/Tomato/Preventive (Action” for “Alternaria solani/Tomato/Preventive (Action”, “Against Botrytis” for “Against Alternaria”, “of 3” for “of 4”, “at 20°” for “at 22° C./18°”

[6] = system: Septoria tritici; experiment: Septoria tritici/Wheat/Preventive (action against Septoria leaf spot on wheat); conditions: Zymoseptoria tritici, preventive spray, wheat plants cv. Riband, assessed 16-18 days after inoculation, read-out: inhibit fungal infestation
Description: Septoria tritici/Wheat/Preventive (Action Against Septoria Leaf Spot on Wheat) 2 weeks old wheat plants cv. Riband are treated with the formulated test compound in a spray chamber. One day after application wheat plants are inoculated by spraying a spore suspension (10^6 conidia/ml) on the test plants. After an incubation period of 1 day at 22° C./21° C. and 95% r. h. plants are kept at 22° C./21° C. and 70% r.h. in a greenhouse. The disease incidence is assessed 16-18 days after inoculation.

[7] = system: Magnaporthe grisea (Pyricularia oryzae); experiment: whole plant or invertebrate; conditions: 144 h, read-out: inhibit fungal infestation

Measured: inhibition at 200 ppm

Cc1nc(Cl)c(-c2c(F)cc(F)cc2F)n1-c1cnc2ccccc2c1 [I.j.270, 3-[4-chloro-2-methyl-5-(2,4,6-trifluoro-phenyl)-imidazol-1-yl]-quinoline]
≥ 80%: all assays above

COc1cc(F)c(-c2c(Cl)nc(C)n2-c2ccc(Cl)nc2)c(F)c1 [I.m.210, 2-Chloro-5-[4-chloro-5-(2,6-difluoro-4-methoxy-phenyl)-2-methyl-imidazol-1-yl]-pyridine]
≥ 80%: all assays above

COc1cc(F)c(-c2c(Cl)nc(C)n2-c2ccc(OC)nc2)c(F)c1 [I.m.220, 5-[4-Chloro-5-(2,6-difluoro-4-methoxy-phenyl)-2-methyl-imidazol-1-yl]-2-methoxy-pyridine]
≥ 80%: all assays above

Fc1cc(F)c(-c2c(Cl)nc(Cl)n2-c2ccc(Cl)nc2)c(F)c1 [I.j.209, 2-Chloro-5-[2,4-dichloro-5-(2,4,6-trifluoro-phenyl)-imidazol-1-yl]-pyridine]
not listed: [2] | [4]
≥ 80%: all other assays above

COc1cc(F)c(-c2c(Cl)nc(C)n2-c2ccc(C)nc2)c(F)c1 [I.m.225, 5-[4-Chloro-5-(2,6-difluoro-4-methoxy-phenyl)-2-methyl-imidazol-1-yl]-2-methyl-pyridine]
≥ 80%: all assays above

Cc1nc(Cl)c(-c2c(F)cc(F)cc2F)n1-c1ccc(Cl)nc1 [I.j.210, 2-Chloro-5-[4-chloro-2-methyl-5-(2,4,6-trifluoro-phenyl)-imidazol-1-yl]-pyridine]
≥ 80%: all assays above

Fc1cc(F)c(-c2c(Cl)nc(Cl)n2-c2cnc3ccccc3c2)c(F)c1 [I.j.269, 3-[2,4-dichloro-5-(2,4,6-trifluoro-phenyl)-imidazol-1-yl]-quinoline]
≥ 80%: [1] | [3] | [4] | [6]

Cc1ccc(-n2c(C)nc(Cl)c2-c2c(F)cc(F)cc2F)cn1 [I.j.225, 5-[4-Chloro-2-methyl-5-(2,4,6-trifluoro-phenyl)-imidazol-1-yl]-2-methyl-pyridine]
≥ 80%: [3] | [4] | [6] | [7]
